In patent publication US11944624B2, “Peptide and small molecule agonists of EphA and their uses” (CASE WESTERN RESERVE UNIVERSITY, priority 2017, dated 2024):
Entries after “also recorded” stand apart in the source; their conditions may differ.

Key:
endogenous EphB4 = target: T1, endogenous EphB4 (Homo sapiens, UniProt P54760); test: Endogenous EphB4 activation in HEK 293 vector control cells; type: cell-based
T1 construct: host or cells: HEK 293 (vector control)
T1 sequence (P54760 16-987): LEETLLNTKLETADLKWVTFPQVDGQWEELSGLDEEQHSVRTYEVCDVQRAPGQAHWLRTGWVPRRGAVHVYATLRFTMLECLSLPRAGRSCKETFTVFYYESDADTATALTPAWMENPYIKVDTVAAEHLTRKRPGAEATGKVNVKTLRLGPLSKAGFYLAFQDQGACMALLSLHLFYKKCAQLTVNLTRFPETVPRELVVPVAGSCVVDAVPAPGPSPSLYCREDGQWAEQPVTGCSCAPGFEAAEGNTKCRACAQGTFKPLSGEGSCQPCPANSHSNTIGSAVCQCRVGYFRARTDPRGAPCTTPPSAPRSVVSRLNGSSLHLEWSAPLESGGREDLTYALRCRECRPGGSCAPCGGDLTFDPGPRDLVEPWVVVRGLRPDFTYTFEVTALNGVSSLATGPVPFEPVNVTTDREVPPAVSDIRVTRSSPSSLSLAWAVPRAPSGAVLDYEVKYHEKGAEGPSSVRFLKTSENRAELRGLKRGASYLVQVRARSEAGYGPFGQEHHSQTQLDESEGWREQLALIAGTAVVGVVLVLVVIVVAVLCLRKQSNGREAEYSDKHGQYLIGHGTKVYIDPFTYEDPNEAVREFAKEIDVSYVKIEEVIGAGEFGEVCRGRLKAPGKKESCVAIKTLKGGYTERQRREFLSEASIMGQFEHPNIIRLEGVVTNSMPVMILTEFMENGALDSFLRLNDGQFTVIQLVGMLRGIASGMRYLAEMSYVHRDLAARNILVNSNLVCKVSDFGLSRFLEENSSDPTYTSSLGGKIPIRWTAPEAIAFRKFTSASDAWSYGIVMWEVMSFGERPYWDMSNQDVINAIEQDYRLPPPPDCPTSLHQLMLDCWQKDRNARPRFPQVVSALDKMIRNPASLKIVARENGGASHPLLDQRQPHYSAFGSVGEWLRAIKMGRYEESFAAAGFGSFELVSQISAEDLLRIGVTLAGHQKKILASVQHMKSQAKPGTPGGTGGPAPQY
Protocol: Cells were plated in 24-well dishes at a density of 100,000 cells/well and grown for 24 hours prior to stimulation with appropriate compounds and ephrins for the given amounts of time. Compounds were prepared in DMSO at 500 times the final concentrations and 0.2% DMSO was used as vehicle control. Following treatment, cells were lysed directly in SDS Gel Loading Buffer and immunoblotted as described previously. […] For immunoprecipitation, 300,000 cells/well were plated in 6-well dishes and lysed in modified RIPA Buffer (20 mM Tris-HCl pH 7.4, 20 mM NaF, 150 mM NaCl, 10% glycerol, 0.1% SDS, 0.5% DCA, 2 mM EDTA, 1% Triton X-100) following treatment. Either 10 μg of ephrin-A1-Fc, or 4 mg of EphA2 mouse monoclonal antibody (Clone D7, Millipore) were used, and mouse IgG was used as a negative control for EphA2 IP. […] For this purpose, HEK 293 cell lines overexpressing EphA1, EphA2, EphA3, EphA4, and EphB3 kinases were utilized.

ERK and Akt activities = ERK and Akt activities in LK133A-Vec cells (EphA2 knockout); type: cell-based, mice
Protocol: Cells were plated in 24-well dishes at a density of 100,000 cells/well and grown for 24 hours prior to stimulation with appropriate compounds and ephrins for the given amounts of time. Compounds were prepared in DMSO at 500 times the final concentrations and 0.2% DMSO was used as vehicle control. Following treatment, cells were lysed directly in SDS Gel Loading Buffer and immunoblotted as described previously. Immunoprecipitation and immunofluorescence staining was performed as described. For immunoprecipitation, 300,000 cells/well were plated in 6-well dishes and lysed in modified RIPA Buffer (20 mM Tris-HCl pH 7.4, 20 mM NaF, 150 mM NaCl, 10% glycerol, 0.1% SDS, 0.5% DCA, 2 mM EDTA, 1% Triton X-100) following treatment. Either 10 μg of ephrin-A1-Fc, or […] of EphA2 mouse monoclonal antibody (Clone D7, Millipore) were used, and mouse IgG was used as a negative control for EphA2 IP.
To address this question, we utilized an immortalized liver epithelial cell line, LK133A, isolated from a hepatoma induced by DEN in EphA2 knockout mice. Retroviral vector was used to restore EphA2 expression in these cells (LK133A-A2), and cells transduced with an empty vector were used as control (LK133AVec).

[1] = test system: MDA-MB-231 breast cancer cells; test: Haptotactic cell migration toward fibronectin, MDA-MB-231; type: cell-based; settings: MDA-MB-231, 4 hours
Source text: (§1) One of the well-established functions of Eph receptors is the ligand-dependent repulsive guidance of cell migration. As a ligand-mimicking agonist for EphA2, doxazosin is expected to activate EphA2 on tumor cells and repulse migrating tumor cells in vitro. To test this possibility, we first investigated the effects of doxazosin on integrin-mediated haptotactic cell migration toward fibronectin in a modified Boyden chamber cell migration assay. […] The inhibitory effects were observed when doxazosin was presented either in the bottom chamber, or in both top and bottom chambers in the Transwell assay system. […] Therefore, doxazosin can recapitulate a key function attributed to its native ligands, i.e., negative regulation of cell migration.

PC3-DAB2IP KD cells = test: Haptotactic cell migration toward fibronectin, PC3-DAB2IP KD; type: cell-based, human; settings: 4 hours
Source text: as §1

EphA2 = EphA2 (Homo sapiens, UniProt P29317); test: EphA2 internalization in MDA-MB-231 cells (immunofluorescence, Example 2); type: cell-based; set-up: expressed in transfected cells; host or cells: MDA-MB-231 (MDA-231-A2 / MDA-MB-231-A2), puromycin selected; settings: 60 min, Doxazosin 50 μM
Chain of EphA2 (P29317 24-976): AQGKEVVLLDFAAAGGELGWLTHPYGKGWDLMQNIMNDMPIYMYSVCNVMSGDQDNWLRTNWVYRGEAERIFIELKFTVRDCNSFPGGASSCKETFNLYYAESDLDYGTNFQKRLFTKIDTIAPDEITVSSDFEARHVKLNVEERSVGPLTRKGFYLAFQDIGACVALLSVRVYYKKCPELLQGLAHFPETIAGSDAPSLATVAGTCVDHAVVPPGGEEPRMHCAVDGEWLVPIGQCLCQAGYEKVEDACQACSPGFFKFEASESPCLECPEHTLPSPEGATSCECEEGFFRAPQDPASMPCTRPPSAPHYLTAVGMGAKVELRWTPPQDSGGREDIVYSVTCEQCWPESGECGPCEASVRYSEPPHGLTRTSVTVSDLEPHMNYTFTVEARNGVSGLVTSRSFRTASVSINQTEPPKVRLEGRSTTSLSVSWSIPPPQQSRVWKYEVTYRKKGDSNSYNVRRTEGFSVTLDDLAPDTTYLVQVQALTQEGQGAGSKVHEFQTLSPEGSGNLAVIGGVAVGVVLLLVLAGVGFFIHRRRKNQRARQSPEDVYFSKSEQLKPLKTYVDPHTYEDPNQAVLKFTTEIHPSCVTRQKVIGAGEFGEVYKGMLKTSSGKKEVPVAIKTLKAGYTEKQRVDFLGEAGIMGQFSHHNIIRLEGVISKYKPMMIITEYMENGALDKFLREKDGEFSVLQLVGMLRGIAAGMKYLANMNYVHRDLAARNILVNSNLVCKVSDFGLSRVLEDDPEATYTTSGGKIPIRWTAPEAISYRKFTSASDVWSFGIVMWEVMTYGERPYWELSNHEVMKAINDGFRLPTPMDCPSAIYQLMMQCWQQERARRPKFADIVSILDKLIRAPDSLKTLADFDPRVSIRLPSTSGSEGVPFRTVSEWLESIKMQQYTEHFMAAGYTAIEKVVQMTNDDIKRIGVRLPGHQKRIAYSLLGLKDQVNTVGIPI
Protocol: This was performed using the MDA-MB-231 cell line. This cell line spreads well in culture, thereby facilitating immunofluorescence detection of cell surface and intracellular EphA2 (FIG. 28). […] MDA-MB-231 cells were plated in 24-well plates on 10 mm square coverslips coated with 10 μg/ml fibronectin and incubated 24-48 hrs before treatment with 50 μM Doxazosin and various doses of compound 27 (0.4, 2, 10, 50 μM) in 0.5% DMSO for 1 hr. As another positive control, cells were treated with 2 μg/ml ephrin-A1-Fc. Cells were then washed with PBS and fixed with 4% paraformaldehyde (Electron Microscopy Sciences, Hatfield, PA) on ice for 10 min, followed by washing and permeabilization with 0.4% NP-40 for 10 min on ice. […] Cells were then incubated in primary mouse EphA2 antibody (D7, 1:100) in 0.1% BSA/PBS for 1 hr at room temperature, washed in PBS and BSA/PBS, followed by incubation in secondary donkey anti-mouse Alexa Fluor 488 antibody (1:300) in BSA/PBS for 30 min at room temperature. Cells were washed in PBS and BSA/PBS, followed by mounting in DAPI Mounting Medium (Electron Microscopy Sciences). Images were taken with a Leica microscope.

COc1cc2nc(N3CCN(C(=O)C4COc5ccccc5O4)CC3)nc(N)c2cc1OC (centres unmarked) [Doxazosin, 2-[4-(2,3-Dihydro-1,4-benzodioxine-2-carbonyl)piperazin-1-yl]-6,7-dimethoxyquinazolin-4-amine]
endogenous EphB4 activation (endogenous EphB4): endogenous EphB4 was not activated | effect on ERK and Akt activities in absence of EphA2 (ERK and Akt activities): neither doxazosin nor ephrin-A1-Fc was able to inhibit ERK and Akt activities; also recorded: notable increase in ERK and Akt activation | haptotactic cell migration toward fibronectin [1]: dose-dependent inhibition of cell migration | haptotactic cell migration toward fibronectin (PC3-DAB2IP KD cells): dose-dependent inhibition of cell migration | EphA2 internalization (EphA2): stimulated significant EphA2 internalization
